Where two headings read alike, the source gives them in different places. Blank lines part the entries; values can stand above or below the compound they belong to.
Assays:
[1] = test system: Paca2 human pancreatic cancer cells; experiment: Colony formation, Paca2 cells, single drugs and combinations; assay type: cell-based
Procedure: (§1) Paca2 human pancreatic cancer cells, A549 human lung cancer cells, and HepG2 human liver cancer cells (American Type Culture Collection) were cultured in Dulbecco's modified Eagle's medium containing 10% fetal bovine serum, 100 units/mL penicillin, 100 μg/mL streptomycin, and 2 mM L-glutamine. […] Erlotinib was from American Custom Chemicals (San Diego, Calif.). Gemcitabine was from Eli Lilly (Indianapolis, Ind.) in an aqueous 20 mM stock solution. Sorafenib was Mass.). Unless otherwise noted all compounds were solubilized in DMSO at 10 mM and aliquoted at −20° C. Exponentially growing Paca2 pancreatic cancer cells were seeded at 1,000 cells per well in 6-well plates and allowed to attach for 24 hours. Increasing concentrations of individual drugs and those in combination were then added to the media for another 24 hours. After 24 hours exposure, the drug was removed and fresh media was added for the next 10-14 days, allowing for colony formation. Cells were fixed and stained with GIEMSA (Gibco BRL). […] Results are an average of duplicate experiments. Alternatively, MTT assays were performed 72 hours post-treatment in A549 and HepG2 cells.

[2] = test system: A549 human lung cancer cells; experiment: 72 hour MTT, A549 cells, single drugs and combinations; assay type: cell-based; settings: for inhibition at 2.5 µM: read-out: X (% Inhibition)
Procedure: (§2) Cell Viability Determination: For 3-(4,5 dimethylthiazol-2-yl)-2,5-diphenyltetrazolium (MTT) (Sigma-Aldrich, St. Louis, Mo.) analysis, cells were plated in 96 well plates at 10,000 cells per well. 24 hours after plating, compound was added to cells at indicated doses. […] following compound addition, MTT was added to each well (0.5 mg/ml, final concentration) and plates were incubated for an additional 2 hours at 37° C. Medium was then aspirated and the formazan product was solubilized in 100 μl of isopropyl alcohol. The absorbance of each well was measured at 570 nm using a microplate reader.
as §1

[3] = test system: HepG2 human liver cancer cells; experiment: 72 hour MTT, HepG2 cells, single drugs and combinations; assay type: cell-based
Procedure: as §2, §1

[4] = test system: Stat3; experiment: Stat3-luciferase (Stat3-Luc) reporter assay, OSM-stimulated HeLa cells; assay type: cell-based; settings: for IC50: Homo sapiens, HeLa cells, compound 30 minutes before 25 ng/ml oncostatin M, read 6 hours later, read-out: IC50 in Stat3-Luc assays
Procedure: Luciferase Reporter Assay: HeLa Cells were co-transfected with Stat3-luciferase (Stat3-Luc) reporter vector (Panomics, Fremont, Calif.) and Renilla luciferase (Promega, Madison, Wis.) using Lipofectamine 2000 as described by the manufacturer (Invitrogen). Following transfection, cells were maintained in medium containing 0.5% FBS for 24 hours. Cells were then treated with the indicated compound for 30 minutes prior to the addition of 25 ng/ml oncostatin M (OSM) (R&D Systems, Minneapolis, Minn.) to the medium. 6 hours following OSM addition, cells were harvested and levels of firefly and renilla luciferase were measured using the Dual-Glo Luciferase Assay System as described by the manufacturer (Promega).
Inhibition of Stat3 transcription activity. Compounds were tested for their ability to inhibit Stat3 transcription activation activity in cells using a Stat3-luciferase (Stat3-luc) reporter construct. Cells transfected with Stat3-luc were cultured in reduced serum medium prior to addition of indicated compound for 30 minutes. Cells were then stimulated with 25 ng/ml oncostatin M (OSM) for 6 hours followed by detection of Stat3-luc reporter activity. […] AG490, a known inhibitor of the Jak-Stat pathway, was included as a positive control for Stat3 inhibition.

[5] = test system: Stat3; experiment: Stat3 DNA binding assay (EMSA), HeLa nuclear extract; assay type: biochemical; settings: HeLa nuclear extract with constitutively activated Stat3
Procedure: STAT3 DNA Binding Assay: Electrophoretic mobility shift assay (EMSA) was performed as described by the manufacturer (Li-Cor Biosciences, Lincoln, Nebr.). Briefly, nuclear extracts were made from HeLa cells using the NucBuster Protein Extraction Kit as described by the manufacturer (EMD Biosciences, San Diego, Calif.). 5 μg of nuclear extract was pre-incubated with the indicated dose of indicated compound for 30 minutes prior to a 15-minute incubation with the IR700-labeled consensus Stat3 oligonucleotide. Samples were then electrophoresed on a polyacrylamide gel and directly scanned using the Odyssey infrared imaging system (Li-Cor Biosciences). For the enzyme-linked immunosorbent assay (ELISA), 5 μg of nuclear extract was preincubated with indicated concentration of indicated compound for 30 minutes prior to the addition of biotinylated oligo (5′-Biotin-[…]-3′ SEQ ID NO. 1). Stat3-DNA complexes were then captured on streptavidin coated 96 well plates (Pierce, Rockford, Ill.). Bound complexes were then incubated with Stat3 polyclonal antibody (Santa Cruz Biotechnology, Santa Cruz, Calif.) followed by anti-rabbit HRP conjugated secondary antibody (GE Healthcare, Pittsburgh, Pa.). Bound antibody was then visualized by addition of TMB substrate (Pierce) and absorbance measured at 450 nm.
Inhibition of Stat3 DNA-binding activity. Nuclear extracts from HeLa cells, which contain constitutively activated Stat3 as detected by phosphorylation at the tyrosine 705 residue, were used to perform Stat3 EMSAs to monitor Stat3 DNA binding activity. Nuclear extracts were incubated with indicated compound prior to incubation with IR700-labeled Stat3 consensus oligonucleotide. Binding of Stat3 to the oligonucleotide was monitored by gel electrophoresis and detection using a LiCor Odyssey infrared scanner.

[6] = test system: CD44high CSCs (FaDu); experiment: Sphere assay (CSC spherogenesis); assay type: cell-based, human; settings: applied at approximately ten times their IC50 concentrations for cell death
Procedure: CD44^high cells were isolated by FACS according to the methods described in Ponti et al, with slight modification. Briefly, after trypsinization and recovery of cells for 30 minutes at 37° C. in growth media, cells were pelleted at 400×g and were resuspended in PBS with 2% FBS and 1 mM EDTA at 1×10^6 cells/mL. Cells were then incubated on ice with a 1:100 dilution of CD44-FITC (BD Biosicences, San Diego, Calif.) for 15 minutes. Alternatively, CD24-PE (BD Bioscences, San Diego, Calif.) (1:100) was utilized for negative selection. After washing three times, cells were resuspended at 2×10^6/mL and passed through a […] mesh before sorting
Sphere assay: A reliable method of measuring the self-renewal capacity of cell population if the ability to be cultured as spheres in the absence of serum or attachment. CD44^high FaDu or Hoechst side population cancer stem cells were cultured in ultra low attachment plates in cancer stem cell media (DMEM/F12, B27 Neurobasal supplement, 20 ng/ml EGF, 10 ng/ml FGF, 4 μg/ml insulin, and 0.4% BSA) to allow spheres formation. Typically, sphere formation was evaluated by microscopy after 10-14 days in culture and spheres with >50 cells were scored.
Identification of compounds that inhibit CSC spherogenesis in vitro. One of the hallmarks of cancer stem cells is their ability to self-renew. A reliable method of measuring the self-renewal capacity of cell populations is the ability to be cultured as spheres in the absence of serum or attachment. To compare the ability of compound 401 to other targeted and chemotherapeutic agents, FACS-isolated CD44^high CSCs were grown as spheres for 72 hours before being challenged with a panel of therapeutic agents. […] Tarceva, Sutent, and Gleevec were added at approximately three times their reported therapeutic concentrations.

[7] = 72 hour MTT A549 cells, X alone 2.5 μM

SMILES: C#Cc1cccc(Nc2ncnc3cc(OCCOC)c(OCCOC)cc23)c1 [Erlotinib]
inhibition at 16 µM ([1]; Homo sapiens, PaCa-2, X alone 16 μM): 26%
inhibition at 2.5 µM ([2]; A549, 72 h): 43%

SMILES: CNC(=O)c1cc(Oc2ccc(NC(=O)Nc3ccc(Cl)c(C(F)(F)F)c3)cc2)ccn1 [Sorafenib]
inhibition at 2 µM ([1]; Homo sapiens, PaCa-2, X alone 2 μM): 66%
inhibition at 2.5 µM [2, 7]: 40%
inhibition at 0.625 µM ([3]; X alone 625 nM): 34%
inhibition at 2.5 µM ([3]; X alone 2.5 μM): 51%

SMILES: COc1cc([C@@H]2c3cc4c(cc3[C@@H](O[C@@H]3O[C@@H]5CO[C@@H](C)O[C@H]5[C@H](O)[C@H]3O)[C@H]3COC(=O)[C@H]23)OCO4)cc(OC)c1O [Etoposide]
inhibition at 0.66 µM ([1]; Homo sapiens, PaCa-2, X alone 660 nM): 58%

IC50 [4]: ~0.75 µM
Inhibition of Stat3 DNA-binding activity (in words) [5]: can inhibit
SMILES: CC(=O)c1cc2c(o1)C(=O)c1cc(F)ccc1C2=O [Compound 418, 2-Acetyl-7-Fluoro-naphtho[2,3-b]furan-4,9-dione]

SMILES: CCN(CC)CCNC(=O)c1c(C)[nH]c(/C=C2\C(=O)Nc3ccc(F)cc32)c1C [Sunitinib]
inhibition at 12 µM ([1]; Homo sapiens, PaCa-2, X alone 12 μM): 52%
inhibition at 2.5 µM [2, 7]: 75%

IC50 [4]: ~0.75 µM
Inhibition of Stat3 DNA-binding activity (in words) [5]: can inhibit
SMILES: CC(=O)c1cc2c(o1)C(=O)c1cc(Cl)ccc1C2=O [Compound 416, 2-Acetyl-7-Chloro-naphtho[2,3-b]furan-4,9-dione]

SMILES: CC(=O)O[C@@]12CO[C@@H]1C[C@H](O)[C@@]1(C)C(=O)[C@H](O)C3=C(C)[C@@H](OC(=O)[C@H](O)[C@@H](NC(=O)OC(C)(C)C)c4ccccc4)C[C@@](O)([C@@H](OC(=O)c4ccccc4)[C@H]21)C3(C)C [Docetaxel, reference compound]
inhibition at 0.00033 µM ([1]; Homo sapiens, PaCa-2, X alone 0.33 nM): 48%
Effect on CSC sphere proliferation [6]: resistant

IC50 [4]: ~2 µM
SMILES: CC(O)c1cc2c(o1)C(=O)c1ccccc1C2=O (stereo not shown) [Compound 301, 2-(1-hydroxyethyl)-naphtho[2,3-b]furan-4,9-dione]

SMILES: CS(=O)(=O)CCNCc1ccc(-c2ccc3ncnc(Nc4ccc(OCc5cccc(F)c5)c(Cl)c4)c3c2)o1 [Lapatinib]
inhibition at 6.75 µM ([1]; Homo sapiens, PaCa-2, X alone 6.75 μM): 27%
inhibition at 2.5 µM [2, 7]: 66%

SMILES: COc1cccc2c1C(=O)c1c(O)c3c(c(O)c1C2=O)C[C@@](O)(C(=O)CO)C[C@@H]3O[C@H]1C[C@H](N)[C@H](O)[C@H](C)O1 [Doxorubicin]
inhibition at 0.016 µM ([1]; Homo sapiens, PaCa-2, X alone 16 nM): 89%
Effect on CSC sphere proliferation [6]: resistant
inhibition at 0.0125 µM ([2]; 72 hour MTT A549 cells, X alone 12.5 nM): 29%
inhibition at 0.0125 µM ([3]; X alone 12.5 nM): 23%

SMILES: N.N.O=C([O-])C1(C(=O)[O-])CCC1.[Pt+2] [Carboplatin]
X (% Inhibition) ([1]; X alone 16 μM): 43%

SMILES: Nc1ccn([C@@H]2O[C@H](CO)[C@@H](O)C2(F)F)c(=O)n1 [Gemcitabine]
inhibition at 0.033 µM ([1]; Homo sapiens, PaCa-2, X alone 33 nM): 36%

SMILES: O=C(c1ccccc1)c1cc2cc3ccccc3cc2s1 [Compound 1001, reference compound]
Inhibition of OSM-stimulated Stat3 reporter activity (in words) ([4]; at a much higher concentration (FIG. 4, right panel)): did not inhibit

— patent publication US10377731B2, “Compositions and methods for cancer treatment” (Boston Biomedical, Inc., priority 2007, dated 2019)
